Reference: patent US9238033B2, “Pharmaceutical composition containing KW-6002 and fluoxetine or paroxentine” (Kyowa Hakko Kirin Co., Ltd., priority 2003, dated 2016)
Where a name gives a salt, the structure may show the parent alone.

Tests used:
ddY male mice = assay: Forced swimming method in mice (animal model of depression); format: in vivo; settings: for Duration of immobility (sec) Mean value ± Standard error: last 4 min of 6 min test, Not Significant (Dunnett test); for Rate of change of duration of immobility to solvent control group (%): solvent control = 100%
Procedure: The test was carried out with reference to the method of Porsolt et al., [Arch. Int. Pharmacodyn. Ther., 229, 327-336 (1977)], which is an animal model of depression.
Experiment was conducted using 10 ddY male mice (weighing 20 to 35 g, Nihon SLC Co., Ltd) per one group.
An acrylic transparent cylinder having a diameter of 10 cm and a height of 25 cm was filled with water having a temperature of about 24° C. Height from the bottom of the cylinder to the surface of the water was adjusted to be about 9 cm.
The mice were forced to swim individually for a period of 6 minutes, the total duration of immobility during the last 4 minutes of 6 minutes test was measured (significance test: Dunnett test).
The antidepressant drug and Compound (I) were suspended in distilled water for injection (manufactured by Otsuka Pharmaceutical Co., Ltd.) containing 0.5% MC (methyl cellulose), respectively, for use in the test. Time point of administration of the antidepressant drug was predetermined such that the peak of onset of activity by the antidepressant drug overlaps with the peak of onset of activity by Compound (I). According to the predetermined time, the suspension containing the antidepressant drug was orally administered to a group administered the antidepressant drug alone or a group administered the antidepressant drug and Compound (I) in combination (0.1 mL per 10 g of the mouse body weight). Further, the suspension containing Compound (I) was orally administered to the group administered the antidepressant drug and Compound (I) in combination, 1 hour before the test (0.1 mL per 10 g of the mouse body weight). A solution without containing a test compound [distilled water for injection (manufactured by Otsuka Pharmaceutical Co., Ltd.) containing 0.5% MC] and the suspension containing Compound (I) were orally administered to a solvent control group and to a group administered Compound (I) alone, 1 hour before the test, respectively (0.1 mL per 10 g of the mouse body weight).
(§1) Effect obtained by combining Compound (I) and the antidepressant drug was evaluated according to the following index.
(§2) The duration of Immobility in the solvent control group was assumed to be 100%, and each rate of change (%) of the duration of, immobility in the above administration group to the duration of immobility in the solvent control group was calculated, and was compared. The duration of immobility in each administration group, and the rate of change (%) of the duration of immobility are shown in Table 1.

ICR male mice = assay: Mouse tail suspension method (animal model of depression); format: in vivo; settings: for Duration of immobility (sec) Mean value ± Standard error: last 4 min of 6 min test, Not Significant (Student's t test); for Rate of change of duration of immobility to solvent control group (%): solvent control = 100%
Procedure: The test was carried out with reference to the method of Steru et al., [Psychopharmacol., 85, 367-370 (1985)], which is an animal model of depression.
Experiment was conducted using 10 ICR male mice (weighing 20 to 35 g, Nihon SLC Co., Ltd) per one group.
An acrylic or metallic bat was fixed horizontally such that height of about 60 cm from the floor face is provided.
The mouse was suspended at a site of about 2 cm from the tip of the tail, from the bar for a period of 6 minutes. Duration of immobility during the last 4 minutes of 6 minutes test was measured (significance test: Student's t test). For fixing the mouse, an adhesive tape was used.
The antidepressant drug and Compound (I) were suspended in distilled water for injection (manufactured by Otsuka Pharmaceutical Co., Ltd.) containing 0.5% MC (methyl cellulose), respectively, for use in the test. Time point of administration of the antidepressant drug was predetermined such that the peak of onset of activity by the antidepressant drug overlaps with the peak of onset of activity by Compound (I). According to the predetermined time, the suspension containing the antidepressant drug was orally administered to a group administered the antidepressant drug alone or a group administered the antidepressant drug and Compound (I) in combination (0.1 mL per 10 g of the mouse body weight). Further, the suspension containing Compound (I) was orally administered to the group administered the antidepressant drug and Compound (I) in combination, 1 hour before the test (0.1 mL per […] of the mouse body weight). A solution without containing a test compound [distilled water for injection (manufactured by Otsuka Pharmaceutical Co., Ltd.) containing 0.5% MC] and the suspension containing Compound (I) were orally administered to a solvent control group and to a group administered Compound (I) alone, 1 hour before the test, respectively (0.1 mL per 10 g of the mouse body weight).
as §1
as §2, with “of” for “of,”, “2 and Table 3.” for “1.”

[1] = Compound (I) 0.08 mg/kg orally 1 hour before test
[2] = Table 2, Compound (I) 0.04 mg/kg orally 1 hour before test
[3] = Table 3, Compound (I) 0.04 mg/kg orally 1 hour before test
[4] = Table 3, fluoxetine hydrochloride 10.00 mg/kg orally
[5] = Table 2, paroxetine hydrochloride hydrate 2.50 mg/kg orally
[6] = Venlafaxine hydrochloride 5.00 mg/kg orally

CCn1c(=O)c2c(nc(/C=C/c3ccc(OC)c(OC)c3)n2C)n(CC)c1=O [Compound (I), (E)-8-(3,4-dimethoxystyryl)-1,3-diethyl-7-methyl-3,7-dihydro-1H-purine-2,6-dione]
Duration of immobility (sec) Mean value ± Standard error (ddY male mice; [1]): 155.6 ± 13.3 s | Rate of change of duration of immobility to solvent control group (%) (ddY male mice; [1]): −21% | Duration of immobility (sec) Mean value ± Standard error (ICR male mice; [2]): 70.1 ± 19.1 s | Rate of change of duration of immobility to solvent control group (%) (ICR male mice; [2]): −14% | Duration of immobility (sec) Mean value ± Standard error (ICR male mice; [3]): 87.9 ± 14.9 s | Rate of change of duration of immobility to solvent control group (%) (ICR male mice; [3]): −26%

CNCCC(Oc1ccc(C(F)(F)F)cc1)c1ccccc1 (stereo not drawn) [Fluoxetine hydrochloride]
Duration of immobility (sec) Mean value ± Standard error (ICR male mice; [4]): 85.7 ± 18.9 s | Rate of change of duration of immobility to solvent control group (%) (ICR male mice; [4]): −16%

Fc1ccc([C@@H]2CCNC[C@H]2COc2ccc3c(c2)OCO3)cc1 [Paroxetine hydrochloride hydrate]
Duration of immobility (sec) Mean value ± Standard error (ICR male mice; [5]): 79.6 ± 16.6 s | Rate of change of duration of immobility to solvent control group (%) (ICR male mice; [5]): −2%

COc1ccc(C(CN(C)C)C2(O)CCCCC2)cc1 (stereo not drawn) [Venlafaxine hydrochloride]
Duration of immobility (sec) Mean value ± Standard error (ddY male mice; [6]): 173.1 ± 20.7 s | Rate of change of duration of immobility to solvent control group (%) (ddY male mice; [6]): −12%
